In test [1] the target is T1, LbSOD (Leishmania braziliensis iron superoxide dismutase, FeSOD).
T1 construct: recombinant from pETM11-LbSOD, 6xHis-tag removed by TEV protease (23 kDa)
Kind of test: Kd from concentration-response (FITC-labeled protein fluorescence / thermal shift); binding confirmed by ITC. In general terms: Isothermal titration calorimetry measures the heat released or taken up as one component is titrated into another.

Test [2] shares this target. Description: Kd from concentration-response (FITC-labeled protein fluorescence / thermal shift). Format: binding.

The term Kd denotes a measure of binding affinity in units of concentration. For the compound `O=[N+]([O-])c1ccc(-c2csc(N=Cc3ccc(Br)c(Br)c3)n2)cc1` [Ju-480, N-(3,4-dibromobenzylidene)-4–(4-nitrophenyl)thiazol-2-imine], the Kd in test [1] was 0.0048 ± 0.0125 mM.
Regarding `COc1cccc(C=Nc2nc(-c3ccc(Br)cc3)cs2)c1` [Ju-514, N-(3-methoxybenzylidene)-4–(4-bromophenyl)thiazol-2-imine], the equilibrium dissociation constant (Kd) in test [2] turned out to be 6.1 ± 0.8 mM.

The values are drawn from PMC6327998, “Synthesis and biological evaluation of thiazole derivatives as LbSOD inhibitors” (Journal of Enzyme Inhibition and Medicinal Chemistry, 2018).
